US8937063B2 (Trustees of Tufts College, priority 2010, dated 2015)

What was measured:
[1] = tested on: high fat+fructose (HF/HS) diet hamsters; assay: 18-day oral dosing lipid study in HF/HS hamsters; type: in vivo, male Golden Syrian hamsters
Protocol: We examined the effects of diet modulation on the lipid profile of male Syrian Golden hamsters. Hamsters were ordered from Charles River Labs (Wilmington, Mass.), and requested to be 111-120 g in weight (correspondingly 56-61 days old). Hamsters were kept in cages of 4-5 per cage, and maintained on a standard light cycle of 12 hours on/12 hours off. All diets were obtained from Dyets, Inc. (Bethlehem, Pa.). “Normal Diet” was a standard rodent chow, catalog #5001, produced into pellets. Water and this standard chow diet were available to this group of hamsters ad libitum. Food was added to cages as needed, but no less frequently than twice per week. “High Fat Diet” was the same standard rodent chow supplemented with the following: 11.5% corn oil, 11.5% coconut oil, 0.5% cholesterol, and 0.25% deoxycholate. This is also available directly from Dyets, Inc., as catalog #611201. Both diets were ordered in 10 kg batches and stored at 4° C. for durations of the experiments (4-8 weeks), and at −20° C. for longer storage (up to six months). Water and this high fat diet were available to this group of hamsters ad libitum. The “High Fat+Fructose” group was fed the same fat-supplemented chow as the “high fat diet” group (#611201), but water was supplemented with fructose to a final concentration of 10%. Fructose was supplied from Now Foods (catalog #6931) and distributed by Lucky Vitamin (catalog #WB48432). Fructose water was prepared by adding 400 g of fructose to 4 L of water and stirring at room temperature until dissolved. Fructose water was stored at 4° C. until use. When provided to hamsters, fructose water was kept in a water bottle in the hamster cages at room temperature, exactly as standard water was. Fructose water and high fat chow were provided to this group of hamsters ad libitum. All animals remained on their respective diets for 21 days.
To begin this experiment, hamsters were randomly assigned to groups defined by the diet modifications above. After a fixed time, blood was collected from hamsters (N=3-4) to determine the lipid contents of the plasma. Because of limitations in the ability to adequately collect blood from hamsters, all blood samples were obtained via a terminal cardiac puncture preceded by asphyxiation with carbon dioxide. Blood (approximately 2 mL volume) was collected with a 22 G needle into a 5 mL syringe and transferred to a K2EDTA tube. The samples were kept on ice until centrifugation (14,000 rpm for 10 minutes at 4° C.) to separate plasma. Plasma was then aliquoted to tubes for storage at −80° C. until analysis.
Lipid parameters were determined using commercially available kits from Wako USA (Richmond, Va.) according to manufacturer's directions.
Male Golden Syrian hamsters were purchased from Charles River Labs (111-120 g, 56-61 days) and acclimated to a high fat+fructose (herein, referred to as “HF/HS”) diet as described above for two weeks. Hamsters were assigned into cohorts by body weight after two weeks' acclimation to the diet. […] Hamsters were dosed once per day for a total of 18 days. All animals remained on the above-described HF/HS diet throughout the dosing period. Dosing solutions for each cohort were prepared for 7 days at a time, although enough was prepared to last for 8 days. Each solution was stored at room temperature between administrations. Cohorts were defined according to Table 2 below.

CETP mRNA = assay: qPCR of liver and adipose mRNA in HF/HS hamsters; type: in vivo, hamster; details: ARI-001 2240 mg/kg oral 18 days; relative to mean of vehicle
From the text: Hamster livers and adipose were preared in manners similar to that described for ARI-001 concentration determination. Briefly, to prepare for analysis, a sample of liver was excised from the frozen mass, weighed, and homogenized with a tissue grinder followed by sonication in buffer. The solid materials were then removed by centrifugation. The resulting lysate was used in qPCR analysis to quantify the specific mRNA measured (vide infra) using primers designed for the specific sequences of interest. All mRNA quantities were normalized to vehicle-treated animal, and mRNA levels were expressed as a fold increase or decrease relative to vehicle-treated. […] During grinding, liquid nitrogen was added to ensure the sample of adipose remained solid. The ground sample was transferred to a tared tube to weigh total sample. This ground sample was treated with buffer and prepared for qPCR to quantify specific mRNA quantities.

high fat-fed hamsters = assay: Liver function tests (AST, ALT) in plasma of chronically dosed hamsters; type: in vivo, hamster; details: vs vehicle
Protocol: In order to investigate this, we examined the common liver functional enzymes AST and ALT in the plasma of hamsters from experiment described above in Example 3. These animals were dosed for 18 consecutive days, while being on a HF/HS diet for a total of nearly 5 weeks. We also examined the glucose levels in the plasma of these animals. For pharmacokinetic studies, we utilized wild type mice for both single and repeated administration study. Finally, pharmacokinetic studies were corroborated by data from single and repeated administration to monkeys.
This led to an investigation of liver function tests (AST, ALT) from plasma of hamsters dosed for 18 days with ARI-001. AST and ALT were measured using commercially available kits (Bio-Quant Diagnostic Kits, San Diego, Calif.). As expected, AST and ALT values from untreated hamsters (vehicle group) were very high, as the high fat diet leads to hepatomegaly and fatty liver. This disease state is reflected in the elevated AST and ALT levels.

mice = assay: Doppler capillary blood flow (flush proxy) in mice; type: in vivo; details: Doppler capillary blood flow measurements
[2] = tested on: plasma lipids in animal models; assay: Summary of lipid efficacy studies in animal models; type: in vivo
From the text: A number of pharmacokinetic, safety, and efficacy studies for ARI-001 have been completed in a variety of animals, including mice, rats, Golden Syrian hamsters, dogs, and monkeys. Overall, results from these studies have established the following.

[3] = Human clinical trial, single oral doses: serum concentration; type: in vivo; details: serum, ARI-001 2000 mg single oral dose, preliminary, read-out: Cmax, serum
Protocol: Five periods of single dose escalation, with 8 subjects per cohort (6 drug: 2 placebo) involve a total 40 subjects. Appropriately blinded matching placebos are provided. Cohort 1 receives 500 mg of ARI-001 formulated as a single oral tablet, plus eleven placebo tablets; Cohort 2, […] of ARI-001, plus ten placebo tablets; Cohort 3, […] of ARI-001, plus eight placebo tablets; Cohort 4, […] of ARI-001, plus four placebo tablets; Corhort 5, […] of ARI-001. Placebo-only subjects take twelve placebo tablets. Each tablet is a compressed, film-coated tablet suitable for oral administration.
Pharmacokinetic samples are collected at 0-45 min pre-dose and at 0.5, 1, 1.5, 2, 4, 6, 8, 12, 24, 30 and 168 hours after dosing. […]
[…] […] Analysis of all samples is performed at a central laboratory.

[4] = ARI-001 2240 mg/kg oral once daily 18 days, plasma, mean ± SD
[5] = ARI-001 2240 mg/kg vs molar equivalent niacin 1200 mg/kg, 18 days

O=C(O)c1ccc(CCN2CCOCC2)nc1 [ARI-001]
TC (total cholesterol) ([1]; ARI-001 2240 mg/kg (9.75 mmol/kg) oral gavage once daily 18 days, plasma, mean ± SD): 343 ± 104 mg/dL | HDL/TC ([1]; ARI-001 2240 mg/kg oral once daily 18 days, mean ± SD): 0.48 ± 0.07 | FFA (free fatty acids) [1, 4]: 0.75 ± 0.15 mEq/L | HDL [1, 4]: 186 ± 74 mg/dL | LDL [1, 4]: 114 ± 33 mg/dL | TG (triglycerides) [1, 4]: 138 ± 80 mg/dL | efficacy relative to niacin, LDL cholesterol parameter [1, 5]: at least 1.67 times | efficacy relative to niacin, total cholesterol parameter [1, 5]: at least 1.54 times | increase of absolute HDL value compared to vehicle ([1]; ARI-001 2240 mg/kg, 18 days): 33% | TC (total cholesterol) ([1]; ARI-001 […] (4.88 mmol/kg) oral gavage once daily 18 days, plasma, mean ± SD): 653 ± 194 mg/dL | Adipose CETP mRNA per mg tissue (CETP mRNA): 1.72 ± 0.70 fold-change | Liver CETP mRNA per mg tissue (CETP mRNA): 2.05 ± 0.38 fold-change | AST (high fat-fed hamsters; 2240 mg/kg oral 18 days): drastically reduced | ALT (high fat-fed hamsters; 1120 and 2240 mg/kg oral 18 days, dose-dependent): similarly reduced | capillary vasodilation or hyperemia (a proxy of flush) (mice): no evidence of capillary vasodilation or hyperemia | plasma lipid changes, once daily vs same total dose twice daily ([2]; in vivo): greater than or equal to the lipid altering effects observed with the same total dose of ARI-001 given twice daily | lipid altering effects of once-daily dose vs niacin ([2]; niacin at nearly 2-fold higher dose once a day): more pronounced | Cmax [3]: ~7500 ng/mL
